The source of these data is PMC9354042, “Discovery of BRAF/HDAC Dual Inhibitors Suppressing Proliferation of Human Colorectal Cancer Cells” (Frontiers in Chemistry, 2022).

Like-named read-outs stand apart in the source and are kept apart here.

One experiment addresses T1, HDAC2 (Homo sapiens, UniProt Q92769).
T1 construct: purchased BPS Bioscience
The experiment is described as follows: HDAC2 fluorescent-based enzymatic activity assay. The format is biochemical. The note with it: Table 3 isoform panel; read-out: Enzyme inhibition HDAC2 (Class I). On the procedure: (§1) The purified recombinant Human HDACs and their corresponding substrates were purchased from BPS Bioscience (BPS Bioscience Inc., United States). The assays were carried out in a 384-well format using the BPS fluorescent–based HDAC activity assay according to the manufacturer’s protocol. In brief, […] of the HDAC reaction mixture was composed of HDAC assay buffer, […] BSA, serial diluted test compounds, appropriate concentration of HDACs, and […] fluorogenic substrate, the mixture was incubated at 37°C for 60 min, and then stopped by the addition of developer containing trypsin and TSA. After 20 min of incubation, the fluorescence was detected at the excitation wavelength of 360 nm and the emission wavelength of 460 nm using the EnVision Multilabel Reader (PerkinElmer Inc., United States). The analytical software, GraphPad Prism 5.0 (GraphPad Software, Inc., United States) was used to generate IC50 value via non-linear regression analysis.

Another experiment addresses T2, HDAC1 (Homo sapiens, UniProt Q13547).
T2 construct: purchased BPS Bioscience
As to the kind of experiment: HDAC1 fluorescent-based enzymatic activity assay. In kind it is biochemical. The procedure:
as §1

For the next experiment, the system named is HT-29 cells. As to the kind of experiment: Antiproliferation CCK-8 assay, HT-29. The note with it: Homo sapiens; CCK-8, 72 h, HT-29 (BRAF^V600E); means of three independent experiments; read-out: Cellular IC50 HT-29. In kind it is cell-based. On the procedure: HCT116 and HT-29 cells were obtained from the Shanghai Cell Bank (Type Culture Collection (TCC), Chinese Academy of Sciences) and cultured in DMEM (10–013-CVR, corning) supplemented with 10% fetal bovine serum (04-001-1A, BI), 1% penicillin/streptomycin (03-031-1B, BI).
The cells in the logarithmic phase were placed in 96-well plates (∼3000 cells/well) in a complete medium. After incubation overnight, the cells were exposed to the corresponding compounds or vehicle control at the indicated concentration for a further 72 h. Cell proliferation was evaluated using Cell Counting Kit 8 (CCK8, CK04, Dojindo Laboratories, Kumamoto, Japan). OD450 and OD650 were determined using a microplate reader. Absorbance rate (A) for each well was calculated as OD450 −OD650. […] Each IC50 value is expressed as mean ± SD. As is the absorbance rate of the test compound well, Ac is the absorbance rate of the well without either the cell or test compound, and Ab is the absorbance rate of the well with the cell and vehicle control.
(In general: Tetrazolium dyes change colour on reduction, which living cells bring about.)

The target in experiment [1] is T3, BRAF (wild-type) (Homo sapiens, UniProt P15056).
T3 construct: purchased Invitrogen
T3 sequence (P15056 whole entry): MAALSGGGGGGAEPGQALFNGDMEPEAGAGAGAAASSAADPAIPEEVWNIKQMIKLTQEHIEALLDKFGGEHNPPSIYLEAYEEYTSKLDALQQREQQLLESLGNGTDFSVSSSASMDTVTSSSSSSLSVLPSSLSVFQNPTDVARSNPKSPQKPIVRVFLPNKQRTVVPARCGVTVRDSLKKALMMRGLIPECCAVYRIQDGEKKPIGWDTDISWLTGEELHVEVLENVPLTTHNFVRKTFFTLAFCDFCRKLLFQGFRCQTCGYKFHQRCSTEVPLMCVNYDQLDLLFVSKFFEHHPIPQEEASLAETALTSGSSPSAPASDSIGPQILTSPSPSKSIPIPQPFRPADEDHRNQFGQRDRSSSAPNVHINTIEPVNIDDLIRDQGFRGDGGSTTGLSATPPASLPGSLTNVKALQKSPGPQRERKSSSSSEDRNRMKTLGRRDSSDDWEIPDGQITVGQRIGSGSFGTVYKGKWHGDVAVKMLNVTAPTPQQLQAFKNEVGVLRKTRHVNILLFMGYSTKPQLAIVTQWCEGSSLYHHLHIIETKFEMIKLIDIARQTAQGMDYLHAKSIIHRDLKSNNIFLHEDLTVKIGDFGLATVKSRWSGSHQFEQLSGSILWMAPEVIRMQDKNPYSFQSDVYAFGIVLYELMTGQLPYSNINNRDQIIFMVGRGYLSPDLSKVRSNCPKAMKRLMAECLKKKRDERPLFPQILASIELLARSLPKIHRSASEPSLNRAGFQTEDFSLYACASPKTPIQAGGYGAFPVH
The experiment is described as follows: wild-type BRAF enzymatic activity, Z'-Lyte kinase assay. The format is biochemical. To be noted: wild-type BRAF kinase; read-out: BRAF^wt enzymatic IC50. On the procedure:
(§2) The experiments were performed according to the instructions of the manufacturer. […] For each assay, 10 μl kinase reactions were added to 384-well plate, mixed thoroughly, and incubated for 1 hour at room temperature. Then, a 5 μl development solution was added to each well and the plate was incubated for another 1 h at room temperature. Then, a 5 μl stop reagent was loaded to stop the reaction. For the control setting, a 5 μl phospho-peptide solution instead of kinase/peptide mixture was used as 100% phosphorylation control. […] The plate was measured on an EnVision Multilabel Reader (Perkin-Elmer). Curve fitting and data presentations were performed using GraphPad Prism, version 5.0. Every experiment was repeated at least two times.

The subject of experiment [2] is BRAF (wild-type). The description is as above. In kind it is biochemical. The note with it: ratio of enzymatic IC50. The procedure:
as §2

The subject of experiment [3] is Ac-histone H3, Ac-α-tubulin, p-ERK in HCT116 cells. The experiment is described as follows: Western blot analysis of HDAC and RAF pathway in HCT116 cells. The format is cell-based, human. The procedure: FIGURE 3 Characterization of dual inhibition of HDAC and RAF pathway. Western blot analysis of 14b in HCT116 cells (A) and in HT-29 cells (B). Cells were treated with 0 μM, 0.12 μM, 0.37 μM, 1.1 μM, 3.3 μM, and 10 μM of drugs and incubated for 6 h. The cell lysis was subjected to Western blot analysis.
The cells were treated with various concentrations of 14b for 6 h. Then, the cells were lysed using 1×SDS sample lysis buffer (CST recommended) with protease and phosphatase inhibitors. Cell lysates were loaded and electrophoresed onto 8–12% SDS-PAGE gel, and then the separated proteins were transferred to a PVDF film. The film was blocked with 5% BSA (Sigma-Aldrich, St. Louis, MO, United States) in a TBS solution containing 0.5% Tween-20 for 4 h at room temperature, then incubated with the corresponding primary antibody (1:1000–1:200) overnight at 4°C. After washing with TBST, HRP-conjugated secondary antibody was incubated for 2 h. The protein signals were visualized by the ECL Western Blotting Detection Kit (Thermo Scientific, Grand Island, NY, United States), and detected with Amersham Imager 600 system (GE, Boston, MA, United States).
(In general: A western blot detects proteins with antibodies after separation by electrophoresis.)

T2 sequence (Q13547 whole entry): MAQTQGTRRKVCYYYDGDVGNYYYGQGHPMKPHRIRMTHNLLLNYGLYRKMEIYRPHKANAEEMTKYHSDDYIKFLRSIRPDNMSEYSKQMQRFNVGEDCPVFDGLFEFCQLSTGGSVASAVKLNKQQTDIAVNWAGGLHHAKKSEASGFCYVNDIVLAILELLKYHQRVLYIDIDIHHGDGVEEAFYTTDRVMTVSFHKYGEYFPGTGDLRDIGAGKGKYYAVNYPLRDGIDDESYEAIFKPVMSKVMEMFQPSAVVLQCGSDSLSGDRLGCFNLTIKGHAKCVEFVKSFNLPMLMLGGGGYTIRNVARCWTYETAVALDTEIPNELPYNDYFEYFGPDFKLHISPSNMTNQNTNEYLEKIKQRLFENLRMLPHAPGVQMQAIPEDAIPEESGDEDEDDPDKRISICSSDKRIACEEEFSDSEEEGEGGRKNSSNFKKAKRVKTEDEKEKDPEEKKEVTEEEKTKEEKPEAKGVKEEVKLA
T1 sequence (Q92769 whole entry): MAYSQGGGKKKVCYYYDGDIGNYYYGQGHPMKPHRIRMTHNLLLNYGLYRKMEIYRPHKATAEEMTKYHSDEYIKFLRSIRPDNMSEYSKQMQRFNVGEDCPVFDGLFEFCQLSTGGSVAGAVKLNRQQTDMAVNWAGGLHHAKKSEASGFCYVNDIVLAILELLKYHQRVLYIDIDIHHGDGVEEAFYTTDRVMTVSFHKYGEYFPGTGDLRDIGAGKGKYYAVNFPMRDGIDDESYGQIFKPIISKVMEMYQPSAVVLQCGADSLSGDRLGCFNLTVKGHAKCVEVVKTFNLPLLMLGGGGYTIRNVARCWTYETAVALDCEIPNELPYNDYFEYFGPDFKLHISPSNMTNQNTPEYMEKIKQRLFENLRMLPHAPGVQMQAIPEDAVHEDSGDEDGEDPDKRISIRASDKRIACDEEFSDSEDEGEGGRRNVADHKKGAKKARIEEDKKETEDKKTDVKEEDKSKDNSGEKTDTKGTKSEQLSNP

On to `CC(C)(C)c1nc(-c2cccc(NS(=O)(=O)c3c(F)cccc3F)c2F)c(-c2ccnc(NCCCCCCC(=O)NO)n2)s1` [14b, 7-{[4-(2-(Tert-Butyl)-4-(3-((2,6-Difluorophenyl)Sulfonamido)-2-Fluorophenyl)Thiazol-5-yl)Pyrimidin-2-yl]Amino}-N-Hydroxyheptanamide], for which the IC50 on HDAC2 is 747 nM; on HDAC1 (Table 1, read-out: Enzymatic IC50 HDAC1) it was 494 nM; on HDAC1 (Table 3 isoform panel, read-out: Enzyme inhibition HDAC1 (Class I)), 493 nM; in the experiment with HT-29 cells, 310 nM; at BRAF (wild-type) [1], 4.07 nM. The “selectivity of BRAF^V600E over wild-type BRAF” value with BRAF (wild-type) [2] was “about 2 fold”. The “expression of BRAF” value in experiment [3] (HCT116 cells) was “did not affect the expression of BRAF itself”. In addition, the “phosphorylation of ERK (p-ERK)” value in experiment [3] (HCT116 cells (wild-type BRAF, K-RAS G13D), 0.12-10 μM, 6 h) is “significantly inhibited phosphorylation of ERK”. Besides, the “acetylated histone H3 (Ac-histone H3)” value in experiment [3] (HCT116 cells, 0.12-10 μM, 6 h) is listed as “upregulated”. In experiment [3] (HCT116 cells, 0.12-10 μM, 6 h), the “acetylated α-tubulin (Ac-α-tubulin)” value is on record as “upregulated”.
